US20220330549A1, “USE OF N-BENZYLBENZAMIDE-BASED COMPOUND AS HERBICIDE” (Northwest A&F University, priority 2020, published 2022)

Legend:
Format in all cases: in vivo
[1] = test system: Barnyard grass; assay: Herbicidal activity test for indoor pre-emergence soil treatment; parameters: key: level 1-9; higher = more weed remaining vs blank control; settings: 150 g a.i./ha, visual inspection 21 days after treatment
In short: (§1)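 Compounds were formulated as 10% emulsifiable concentrates and sprayed onto the soil 24 h after sowing, at 150 g(a.i.)/ha. Soil was sandy loam (≤2% organic matter), with seeds under 0.5–2.0 cm cover, per NY/T 1155.3-2006. Visual 1–9 ratings relative to blank control were made after 21 days.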

[2] = test system: Piemarker; assay: as above; parameters: key: level 1-9; higher = more weed remaining vs blank control; settings: 150 g a.i./ha, visual inspection 21 days after treatment
In short: as §1

[3] = test system: green bristlegrass; assay: as above; parameters: key: level 1-9; higher = more weed remaining vs blank control; settings: 150 g a.i./ha, visual inspection 21 days after treatment
In short: as §1

[4] = test system: Amaranthus retroflexus; assay: as above; parameters: key: 1-9 levels; higher = more weed remaining vs blank control; settings: 150 g a.i./ha, visual inspection 21 days after treatment
In short: as §1

[5] = test system: Digitaria sanguinalis; assay: as above; parameters: key: 1-9 levels; higher = more weed remaining vs blank control; settings: 150 g a.i./ha, visual inspection 21 days after treatment
In short: as §1

[6] = test system: Humulus scandens; assay: as above; settings: 150 g a.i./ha, visual inspection 21 days after treatment
In short: as §1

[7] = test system: Amaranthus retroflexus; assay: Herbicidal activity test for indoor post-emergence spraying on stems and leaves; parameters: key: grade level by weed remaining vs blank control, e.g. 5 = 10.1-15%; settings: 150 g a.i./ha, visual inspection 21 days after treatment
In short: (§2)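 Visual inspection at 21 days after treatment gave a level rating, each level defined as a percentage band of the weed remaining in the blank control area. Plants were sprayed on stems and leaves after emergence, following NY/T 1155.4-2006.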

[8] = test system: Barnyard grass; assay: as above; parameters: key: grade level by weed remaining vs blank control, e.g. 5 = 10.1-15%; settings: 150 g a.i./ha, visual inspection 21 days after treatment
In short: as §2

[9] = test system: Digitaria sanguinalis; assay: as above; parameters: key: grade level by weed remaining vs blank control, e.g. 5 = 10.1-15%; settings: 150 g a.i./ha, visual inspection 21 days after treatment
In short: as §2

[10] = test system: Humulus scandens; assay: as above; parameters: key: grade level by weed remaining vs blank control, e.g. 5 = 10.1-15%; settings: 150 g a.i./ha, visual inspection 21 days after treatment
In short: as §2

[11] = test system: Piemarker; assay: as above; parameters: key: grade level by weed remaining vs blank control, e.g. 5 = 10.1-15%; settings: 150 g a.i./ha, visual inspection 21 days after treatment
In short: as §2

[12] = test system: green bristlegrass; assay: as above; parameters: key: grade level by weed remaining vs blank control, e.g. 5 = 10.1-15%; settings: 150 g a.i./ha, visual inspection 21 days after treatment
In short: as §2

[13] = test system: Broadleaf weed; assay: Post-emergence herbicidal activity test in a paddy field; parameters: key: level scale; higher level = more weed left vs blank control; settings: 150 g a.i./ha (penoxsulam control 250 g(a.i.)/h)
In short: (§3)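 Efficacy was visually estimated 15 and 30 days after spraying, grading weed coverage relative to an untreated neighbouring plot (level 2 = 0 to 2.5%, level 9 = 67.6 to 100%). Treatments were 150 g(a.i.)/ha from 10% emulsifiable concentrates applied at the 4-5 leaf rice stage, four repeats of 50 m^2 each.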

[14] = test system: Cyperaceae; assay: as above; parameters: key: level scale; higher level = more weed left vs blank control; settings: 150 g a.i./ha (penoxsulam control 250 g(a.i.)/h)
In short: as §3

[15] = test system: Gramineae; assay: as above; parameters: key: level scale; higher level = more weed left vs blank control; settings: 150 g a.i./ha (penoxsulam control 250 g(a.i.)/h)
In short: as §3

[16] = test system: Acalypha australis; assay: Field test for weed control in a corn field; settings: 150 g a.i./ha, after treatment
In short: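 Post-emergence field trial in a corn field following GB/T 17980.42-2000. Test compounds were formulated as 10% emulsifiable concentrates, diluted in water, and sprayed at 150 g(a.i.)/ha when corn had 2 to 5 leaves, with 4 replicates on 20 m^2 plots. Mesotrione 25% oil dispersion served as the control agent. Weed control was scored on a 1-9 scale.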

[17] = test system: Amaranthus retroflexus; assay: Field test for weed control in a corn field; settings: 150 g a.i./ha, 30 days after treatment
In short: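 Field efficacy trial in a corn field following GB/T 17980.42-2000. Test compounds were formulated as 10% emulsifiable concentrates, diluted in water and sprayed post-emergence when corn had 2 to 5 leaves. Each treatment covered 20 m^2 with 4 replicates. A 25% mesotrione oil dispersion served as control. Damage to Amaranthus retroflexus was rated on a 1-9 scale against untreated blank plots.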

[18] = test system: Barnyard grass; assay: Field test for weed control in a corn field; settings: 150 g a.i./ha, 30 days after treatment
In short: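 Corn-field efficacy trial following GB/T 17980.42-2000. Test compounds were formulated as 10% emulsifiable concentrates, diluted in water and sprayed post-emergence at 150 g(a.i.)/ha when corn had 2 to 5 leaves. Each treatment was replicated 4 times on 20 m^2 plots. Barnyard grass control was rated on a 1-9 damage scale.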

[19] = test system: Chenopodium album; assay: Field test for weed control in a corn field; settings: 150 g a.i./ha, after treatment
In short: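 A corn-field efficacy trial following GB/T 17980.42-2000 tested post-emergence control of Chenopodium album. Test compounds formulated as 10% emulsifiable concentrates were diluted in water and sprayed at 150 g(a.i.)/ha when the corn had 2 leaves to 5 leaves, on 20 m^2 plots with 4 replicates. Herbicidal activity was rated on a 1-9 scale by damage symptoms and severity.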

[20] = test system: Convolvulus arvensis; assay: Field test for weed control in a corn field; settings: 150 g a.i./ha, after treatment
In short: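 Field trial of weed control against Convolvulus arvensis in corn, run following GB/T 17980.42-2000. Test agents were formulated as 10% emulsifiable concentrates and sprayed in water at 150 g(a.i.)/ha when corn plants had 2 to 5 leaves. Each treatment was replicated 4 times on 20 m^2 plots, and 25% mesotrione oil dispersion served as the control agent.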

[21] = test system: Digitaria sanguinalis; assay: Field test for weed control in a corn field; settings: 150 g a.i./ha, after treatment
In short: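 Field trial in a corn field following GB/T 17980.42-2000. Test compounds were formulated as 10% emulsifiable concentrates, diluted in water and sprayed post-emergence at 150 g(a.i.)/ha when corn had 2 to 5 leaves, with 4 replicates on 20 m^2 plots. Control of Digitaria sanguinalis was scored on a 1-9 scale based on weed damage relative to the untreated blank area.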

[22] = test system: Portulaca oleracea; assay: Field test for weed control in a corn field; settings: 150 g a.i./ha, after treatment
In short: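 Field efficacy trial in corn following GB/T 17980.42-2000. Test compounds were prepared as 10% emulsifiable concentrates, diluted in water, and sprayed at 150 g(a.i.)/ha when corn had 2 to 5 leaves after sowing. Plots were 20 m^2 with 4 replicates per treatment. Herbicidal activity was scored on a 1-9 scale from weed damage symptoms and severity.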

[23] = test system: Solanum nigrum; assay: Field test for weed control in a corn field; settings: 150 g a.i./ha, 30 days after treatment
In short: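 Post-emergence weed control was tested in a corn field following GB/T 17980.42-2000. Compounds were made into 10% emulsifiable concentrates, diluted in water and sprayed at 150 g(a.i.)/ha when corn had 2 to 5 leaves after sowing, in 20 m^2 plots with 4 replicates. Effects on Solanum nigrum were graded on a 1-9 scale relative to the blank control area.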

[24] = test system: goosegrass; assay: Field test for weed control in a corn field; settings: 150 g a.i./ha, after treatment
In short: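 Weed control efficacy against goosegrass was tested in a corn field following GB/T 17980.42-2000. Compounds formulated as 10% emulsifiable concentrates were diluted in water and sprayed post-emergence at 150 g(a.i.)/ha when corn had 2 to 5 leaves, with 4 replicates of 20 m^2 plots. Herbicidal activity was rated on a 1-9 scale by damage symptoms and severity.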

[25] = test system: green bristlegrass; assay: Field test for weed control in a corn field; settings: 150 g a.i./ha, after treatment
In short: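 Post-emergence weed control was tested in a corn field following GB/T 17980.42-2000. When the corn had 2 leaves to 5 leaves after sowing, 10% emulsifiable concentrates diluted in water were sprayed at 150 g(a.i.)/ha on 20 m^2 plots, four replicates per treatment. Effects on green bristlegrass were scored on a 1-9 damage scale relative to the blank control area.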

[26] = test system: nutgrass flatsedge; assay: Field test for weed control in a corn field; settings: 150 g a.i./ha, after treatment
In short: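 A corn field efficacy trial following GB/T 17980.42-2000 assessed post-emergence control of nutgrass flatsedge. Test compounds were formulated as 10% emulsifiable concentrates, diluted in water, and sprayed at 150 g(a.i.)/ha when the corn had 2 to 5 leaves. Each treatment had 4 replicates on 20 m^2 plots. Herbicidal activity was graded on a 1-9 scale by damage symptoms and severity.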

Compound | Herbicidal Activity Barnyard grass [1] | Herbicidal Activity Piemarker [2] | Herbicidal Activity Green bristlegrass [3] | Herbicidal Activity Amaranthus retroflexus [4] | Herbicidal Activity Digitaria sanguinalis [5] | Herbicidal Activity Humulus scandens [6] | Herbicidal Activity Amaranthus retroflexus [7] | Herbicidal Activity Barnyard grass [8] | Herbicidal Activity Digitaria sanguinalis [9] | Herbicidal Activity Humulus scandens [10] | Herbicidal Activity Piemarker [11] | Herbicidal Activity Green bristlegrass [12] | Herbicidal activity 15 days after treatment Broadleaf weed [13] | Herbicidal activity 30 days after treatment Broadleaf weed [13] | Herbicidal activity 15 days after treatment Cyperaceae [14] | Herbicidal activity 30 days after treatment Cyperaceae [14] | Herbicidal activity 15 days after treatment Gramineae [15] | Herbicidal activity 30 days after treatment Gramineae [15] | Post-emergence weed control effect, Acalypha australis [16] | Post-emergence weed control effect, Amaranthus retroflexus [17] | also measured
COc1ncccc1C(=O)NCc1cccc(Cl)c1 [Compound A92] | 1 | 1 | 1 | 1 | 1 | 2 (equivalent to 0 to 2.5% of the weed in the blank control area) | 1 | 1 | 1 | 1 | 1 | 1 | 1 | 1 | 1 | 1 | 2 (equivalent to 0 to 2.5% of the weed in the blank control area) | 2 (equivalent to 0 to 2.5% of the weed in the blank control area) | 2 (equivalent to 0 to 2.5% of the weed in the blank control area) | 1 | Post-emergence weed control effect, Barnyard grass [18]: 1; Post-emergence weed control effect, Chenopodium album [19]: 1; Post-emergence weed control effect, Convolvulus arvensis [20]: 1; Post-emergence weed control effect, Digitaria sanguinalis [21]: 2 (equivalent to 0 to 2.5% of the weed in the blank control area); Post-emergence weed control effect, Portulaca oleracea [22]: 1; Post-emergence weed control effect, Solanum nigrum [23]: 2 (equivalent to 0 to 2.5% of the weed in the blank control area); Post-emergence weed control effect, Goose grass [24]: 1; Post-emergence weed control effect, Green bristlegrass [25]: 2 (equivalent to 0 to 2.5% of the weed in the blank control area); Post-emergence weed control effect, Nutgrass flatsedge [26]: 2 (equivalent to 0 to 2.5% of the weed in the blank control area)
COc1ncccc1C(=O)NCc1ccc(F)cc1 [Compound A94] | 1 | 1 | 1 | 1 | 1 | 2 (equivalent to 0 to 2.5% of the weed in the blank control area) | 1 | 1 | 1 | 1 | 1 | 1 | 1 | 1 | 1 | 2 (equivalent to 0 to 2.5% of the weed in the blank control area) | 2 (equivalent to 0 to 2.5% of the weed in the blank control area) | 2 (equivalent to 0 to 2.5% of the weed in the blank control area) | 2 (equivalent to 0 to 2.5% of the weed in the blank control area) | 1 | Post-emergence weed control effect, Barnyard grass [18]: 1; Post-emergence weed control effect, Chenopodium album [19]: 1; Post-emergence weed control effect, Convolvulus arvensis [20]: 2 (equivalent to 0 to 2.5% of the weed in the blank control area); Post-emergence weed control effect, Digitaria sanguinalis [21]: 2 (equivalent to 0 to 2.5% of the weed in the blank control area); Post-emergence weed control effect, Portulaca oleracea [22]: 1; Post-emergence weed control effect, Solanum nigrum [23]: 2 (equivalent to 0 to 2.5% of the weed in the blank control area); Post-emergence weed control effect, Goose grass [24]: 1; Post-emergence weed control effect, Green bristlegrass [25]: 2 (equivalent to 0 to 2.5% of the weed in the blank control area); Post-emergence weed control effect, Nutgrass flatsedge [26]: 3 (equivalent to 2.6 to 5% of the weed in the blank control area)
